The values below come from US20070105820A1 (priority 2005, published 2007).

Bounds are passed on as bounds.

One data set concerns peripheral nerve injury. Particulars: intravenous; concentrations that do not affect general behaviour and motor function; cited from earlier work.
The test system of another data set is Nav1.4. Type of data set: cell-based, Chinese Hamster.
The subject of a further data set is Nav1.4 and 1.5. The class given is cell-based, rat.
The next data set deals with NaV1.8 (Homo sapiens, UniProt Q9Y5Y9). The class given is cell-based.
Another data set addresses Nav1.2 (Rattus norvegicus, UniProt P04775).

Chain of Nav1.2 (P04775 whole entry, looked up): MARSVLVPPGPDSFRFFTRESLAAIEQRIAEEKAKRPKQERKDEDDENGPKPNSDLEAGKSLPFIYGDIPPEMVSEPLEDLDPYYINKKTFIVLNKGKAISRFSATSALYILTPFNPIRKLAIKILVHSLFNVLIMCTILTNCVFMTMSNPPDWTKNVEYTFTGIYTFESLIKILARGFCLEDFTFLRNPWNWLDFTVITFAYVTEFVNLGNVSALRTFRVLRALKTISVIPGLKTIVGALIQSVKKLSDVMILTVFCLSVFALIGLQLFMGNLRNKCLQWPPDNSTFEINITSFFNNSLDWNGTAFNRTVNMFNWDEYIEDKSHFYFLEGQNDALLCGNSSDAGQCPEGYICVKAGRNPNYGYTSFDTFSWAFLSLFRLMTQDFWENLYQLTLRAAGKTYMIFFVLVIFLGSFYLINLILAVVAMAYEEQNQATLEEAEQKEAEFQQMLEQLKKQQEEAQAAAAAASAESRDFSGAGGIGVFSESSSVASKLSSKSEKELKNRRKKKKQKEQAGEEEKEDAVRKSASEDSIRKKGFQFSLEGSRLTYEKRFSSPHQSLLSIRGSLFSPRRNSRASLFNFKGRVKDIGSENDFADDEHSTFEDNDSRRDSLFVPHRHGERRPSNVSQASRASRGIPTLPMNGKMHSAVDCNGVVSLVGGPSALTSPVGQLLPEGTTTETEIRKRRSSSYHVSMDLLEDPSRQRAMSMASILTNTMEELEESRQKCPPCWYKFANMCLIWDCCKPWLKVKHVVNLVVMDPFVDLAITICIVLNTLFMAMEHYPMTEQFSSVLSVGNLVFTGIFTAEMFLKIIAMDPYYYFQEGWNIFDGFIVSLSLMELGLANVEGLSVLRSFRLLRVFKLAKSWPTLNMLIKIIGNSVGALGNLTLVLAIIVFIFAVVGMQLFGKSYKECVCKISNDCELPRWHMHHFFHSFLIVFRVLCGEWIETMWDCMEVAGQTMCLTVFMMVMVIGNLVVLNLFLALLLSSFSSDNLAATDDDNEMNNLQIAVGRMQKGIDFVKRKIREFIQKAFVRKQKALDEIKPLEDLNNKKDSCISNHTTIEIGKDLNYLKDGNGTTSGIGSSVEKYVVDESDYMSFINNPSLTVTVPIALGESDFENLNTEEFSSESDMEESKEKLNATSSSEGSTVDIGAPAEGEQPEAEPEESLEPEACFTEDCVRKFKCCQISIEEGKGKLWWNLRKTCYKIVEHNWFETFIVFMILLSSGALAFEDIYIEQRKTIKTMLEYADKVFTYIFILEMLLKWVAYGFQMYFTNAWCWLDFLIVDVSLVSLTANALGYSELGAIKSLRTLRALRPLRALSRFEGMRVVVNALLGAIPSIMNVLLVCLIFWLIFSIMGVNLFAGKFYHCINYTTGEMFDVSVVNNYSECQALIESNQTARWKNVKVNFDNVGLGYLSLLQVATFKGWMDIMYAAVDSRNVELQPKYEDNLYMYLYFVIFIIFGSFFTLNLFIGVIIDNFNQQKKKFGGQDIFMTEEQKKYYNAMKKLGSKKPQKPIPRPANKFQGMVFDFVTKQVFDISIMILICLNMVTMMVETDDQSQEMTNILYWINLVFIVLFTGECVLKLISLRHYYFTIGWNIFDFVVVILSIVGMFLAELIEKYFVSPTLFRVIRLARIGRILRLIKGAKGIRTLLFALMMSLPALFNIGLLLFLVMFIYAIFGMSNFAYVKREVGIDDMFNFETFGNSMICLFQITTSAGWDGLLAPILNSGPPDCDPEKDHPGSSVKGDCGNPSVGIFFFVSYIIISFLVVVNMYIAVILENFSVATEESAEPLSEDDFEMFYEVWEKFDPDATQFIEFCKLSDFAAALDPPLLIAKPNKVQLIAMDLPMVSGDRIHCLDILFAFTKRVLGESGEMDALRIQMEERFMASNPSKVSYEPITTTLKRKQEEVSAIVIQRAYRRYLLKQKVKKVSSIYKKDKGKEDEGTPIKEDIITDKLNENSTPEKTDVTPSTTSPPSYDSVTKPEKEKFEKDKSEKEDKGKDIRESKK
Chain of NaV1.8 (Q9Y5Y9 whole entry, looked up): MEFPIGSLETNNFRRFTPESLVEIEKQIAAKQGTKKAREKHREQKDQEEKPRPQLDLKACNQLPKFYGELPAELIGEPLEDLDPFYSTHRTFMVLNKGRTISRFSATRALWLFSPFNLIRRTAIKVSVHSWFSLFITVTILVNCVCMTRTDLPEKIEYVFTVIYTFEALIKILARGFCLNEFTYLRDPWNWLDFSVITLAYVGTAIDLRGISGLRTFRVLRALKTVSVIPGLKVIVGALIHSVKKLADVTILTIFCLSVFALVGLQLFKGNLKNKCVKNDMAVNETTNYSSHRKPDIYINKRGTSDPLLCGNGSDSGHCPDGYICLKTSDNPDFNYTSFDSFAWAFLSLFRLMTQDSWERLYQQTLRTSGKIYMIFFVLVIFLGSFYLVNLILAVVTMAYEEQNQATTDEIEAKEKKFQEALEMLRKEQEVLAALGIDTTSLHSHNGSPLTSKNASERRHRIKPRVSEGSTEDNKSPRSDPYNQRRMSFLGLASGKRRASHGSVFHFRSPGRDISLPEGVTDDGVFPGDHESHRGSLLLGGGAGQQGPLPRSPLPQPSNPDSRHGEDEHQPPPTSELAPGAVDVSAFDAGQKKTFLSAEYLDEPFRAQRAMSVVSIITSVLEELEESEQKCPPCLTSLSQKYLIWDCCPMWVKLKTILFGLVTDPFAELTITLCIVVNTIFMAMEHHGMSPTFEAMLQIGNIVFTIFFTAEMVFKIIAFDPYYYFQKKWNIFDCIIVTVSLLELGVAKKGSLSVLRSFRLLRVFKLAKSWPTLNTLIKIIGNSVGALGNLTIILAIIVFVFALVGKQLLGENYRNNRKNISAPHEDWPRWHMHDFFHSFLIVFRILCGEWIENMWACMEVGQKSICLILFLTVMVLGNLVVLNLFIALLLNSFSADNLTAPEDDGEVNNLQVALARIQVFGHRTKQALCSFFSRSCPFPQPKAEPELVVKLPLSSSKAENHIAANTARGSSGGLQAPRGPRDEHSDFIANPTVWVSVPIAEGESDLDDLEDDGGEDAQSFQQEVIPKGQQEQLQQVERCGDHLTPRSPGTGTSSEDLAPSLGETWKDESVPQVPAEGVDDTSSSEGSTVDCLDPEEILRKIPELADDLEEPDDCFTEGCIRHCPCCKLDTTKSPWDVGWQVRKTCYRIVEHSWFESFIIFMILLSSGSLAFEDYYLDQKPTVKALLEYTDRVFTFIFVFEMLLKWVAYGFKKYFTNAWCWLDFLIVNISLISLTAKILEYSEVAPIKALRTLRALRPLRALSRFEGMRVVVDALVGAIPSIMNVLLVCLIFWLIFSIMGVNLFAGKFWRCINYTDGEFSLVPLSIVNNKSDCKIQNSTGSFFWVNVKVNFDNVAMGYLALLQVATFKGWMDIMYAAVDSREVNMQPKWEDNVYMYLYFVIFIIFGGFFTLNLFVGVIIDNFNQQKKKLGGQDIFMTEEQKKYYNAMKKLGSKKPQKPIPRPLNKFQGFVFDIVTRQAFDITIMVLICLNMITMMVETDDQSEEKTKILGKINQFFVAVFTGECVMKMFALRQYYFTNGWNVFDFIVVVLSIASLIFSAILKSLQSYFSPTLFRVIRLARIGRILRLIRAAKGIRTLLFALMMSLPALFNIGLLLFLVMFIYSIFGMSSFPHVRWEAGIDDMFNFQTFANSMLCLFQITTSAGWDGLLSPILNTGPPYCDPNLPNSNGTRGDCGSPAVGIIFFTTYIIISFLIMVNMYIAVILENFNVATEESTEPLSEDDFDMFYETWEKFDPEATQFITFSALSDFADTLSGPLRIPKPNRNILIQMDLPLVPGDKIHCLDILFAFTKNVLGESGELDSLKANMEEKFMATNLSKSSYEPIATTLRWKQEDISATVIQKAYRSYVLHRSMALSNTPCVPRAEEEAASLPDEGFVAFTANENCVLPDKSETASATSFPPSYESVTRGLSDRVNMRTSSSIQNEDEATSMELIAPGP

The molecule `O=C1N(CC2CC2)c2ccccc2C1(O)c1ccc2c(c1)OCO2` (centres unmarked) yielded a melting point of 142 to 145 °C.

With `CCCCCN1C(=O)C(c2ccc3c(c2)OCO3)(c2cc3c(cc2O)OCO3)c2ccccc21` (centres unmarked), the melting point fell in the range of 75 to 76 °C.

Turning to `O=C1Nc2c(-c3ccc4c(c3)OCO4)cccc2C1(O)c1ccc2c(c1)OCO2` (centres unmarked), the melting point fell in the range of 112 to 115 °C.

Molecule `CC(c1ccccc1)N1C(=O)C(O)(c2ccc3c(c2)OCO3)c2ccccc21` (centres unmarked) had a melting point of 148 to 150 °C.

With `O=C(c1ccc(Cl)cc1)N1C(=O)C(O)(c2ccccc2)c2ccccc21` (centres unmarked), the melting point fell in the range of 141 to 143 °C.

Molecule `COc1ccc2c(c1)C(O)(c1ccc3c(c1)OCO3)C(=O)N2Cc1ccc(F)cc1` (centres unmarked) registered a melting point of 127 to 129 °C.

`CCCCCN1C(=O)C(c2ccc3c(c2)OCO3)c2cc(C)cc(C)c21` (centres unmarked): the melting point was in the range of 111 to 114 °C.

Turning to `O=C1N(Cc2cccc3cccnc23)c2ccccc2C1(O)c1ccc2c(c1)OCO2` (centres unmarked), the melting point lay in the range of 187 to 189 °C.

Consider `O=C1N(Cc2cc3c(cc2Cl)OCO3)c2ccccc2C1(O)c1ccc2c(c1)OCO2` (centres unmarked), for which the melting point lay within 153 to 155 °C.

The molecule `O=C1N(Cc2ccc(Cl)cc2)c2ccccc2C1(O)c1ccc2c(c1)OC(F)(F)O2` (centres unmarked) came in with a melting point of 150 to 152 °C.

`O=C1N(CCCC(F)(F)F)c2ccccc2C1(O)c1ccc2c(c1)OCO2` (centres unmarked) yielded a melting point of 119 to 121 °C.

As to `O=C1c2ccccc2CC1C1(O)C(=O)N(Cc2ccc(Cl)cc2)c2ccccc21` (centres unmarked), the melting point is 154 to 157 °C.

Take `CCCCCN1C(=O)C(O)(c2ccc3c(c2)OCO3)c2cccc(F)c21` (centres unmarked): the melting point is 102 to 104 °C.

Molecule `CCCCCN1C(=O)C(O)(c2ccc3ocnc3c2)c2ccccc21` (centres unmarked) came in with a melting point of 189 to 191 °C.

Regarding `O=C1N(Cc2ccc(Cl)cc2)c2ccccc2C1(O)CC1OCCO1` (centres unmarked), the melting point was 166 to 169 °C.

`O=C1N(Cc2ccc(Cl)cc2)c2ccccc2C1(O)C#Cc1ccc(F)cc1` (centres unmarked): the melting point lay within 153 to 154 °C.

With `CCCCCN1C(=O)C(O)(c2ccc3c(c2)OCO3)c2cc(C)cc(C)c21` (centres unmarked), the melting point lay within 120 to 121 °C.

On to `O=C1N(Cc2ccc(Cl)cc2)c2ccccc2C1(O)c1ccc2ccoc2c1` (centres unmarked), for which the melting point is > 200 °C (dec.).

`COc1ccccc1CN1C(=O)C(O)(c2ccc3c(c2)OCO3)c2ccccc21` (centres unmarked) came in with a melting point of 148 to 150 °C.

As for `O=C1N(CCCCCCl)c2ccccc2C1(O)c1ccc2c(c1)OCO2` (centres unmarked), the melting point was in the range of 131 to 132 °C.

`O=C1N(CCC2CC2)c2ccccc2C1(O)c1ccc2c(c1)OCO2` (centres unmarked) registered a melting point of 110 to 112 °C.

The molecule `O=C1N(Cc2ccc(Cl)cc2)c2ccccc2C1(O)c1ccc2ncsc2c1` (centres unmarked) showed a melting point of 185 to 187 °C.

Take `CCCCCN1C(=O)C(CO)(c2cc3c(cc2O)OCO3)c2ccccc21` (centres unmarked): the melting point lay in the range of 125 to 127 °C.

`CCCCCN1C(=O)C(c2ccc3c(c2)OCO3)c2cccc(F)c21` (centres unmarked) had a melting point of 95 to 97 °C.

Take `O=C(CC1(O)C(=O)N(Cc2ccc(Cl)cc2)c2ccccc21)c1cc2ccccc2o1` (centres unmarked): the melting point was 185 °C (dec.).

The molecule `CCCCCC1(O)C(=O)N(c2ccc3c(c2)OCO3)c2ccccc21` (centres unmarked) had a melting point of 88 to 90 °C.

For the molecule `O=C(CC1(O)C(=O)N(Cc2ccc(Cl)cc2)c2ccccc21)c1ccc[nH]1` (centres unmarked), the melting point was 202 °C (dec.).

Consider `O=C(CC1(O)C(=O)N(c2ccc(F)cc2)c2ccccc21)c1ccco1` (centres unmarked), for which the melting point was 185 °C (dec.).

For the molecule `COc1ccc(C2(O)C(=O)N(Cc3ccc(Cl)cc3)c3ccccc32)cc1OC` (centres unmarked), the melting point lay within 155 to 158 °C.

`COc1ccc(CN2C(=O)C(O)(c3ccc4c(c3)OC(F)(F)O4)c3ccccc32)cc1` (centres unmarked) showed a melting point of 88 to 90 °C.

The molecule `O=C(CC1(O)C(=O)N(Cc2ccc(Cl)cc2)c2ccccc21)c1ccc(F)cc1` (centres unmarked) gave a melting point of 156 to 160 °C.

Molecule `CCCCCN1C(=O)C(c2ccc3c(c2)OCO3)c2c(Cl)ccc(Cl)c21` (centres unmarked) displayed a melting point of 84 to 86 °C.

Regarding `CCCCCN1C(=O)C(O)(c2ccc3c(c2)OCO3)c2ccc(Cl)cc21` (centres unmarked), the melting point was 103 to 105 °C.

In the case of `CCN(CC)CC(=O)Nc1c(C)cccc1C` [lidocaine], in the data set with peripheral nerve injury, the “effect on ectopic activity in the injured nerve” value was “suppress the ectopic activity” and the “effect on tactile allodynia” value is given as “reverse the tactile allodynia”.

As to `O=C1N(Cc2ccc3c(c2)OCO3)c2ccccc2C1(O)c1ccc2ccoc2c1` (centres unmarked), the melting point is more than 200 °C.

With `O=C1C(c2ccc3c(c2)OCO3)c2ccccc2N1Cc1ccc(Cl)cc1` (centres unmarked), the melting point was 161 to 163 °C.

In the case of `O=C1N(Cc2cccc3ccccc23)c2ccccc2C1(O)c1ccc2c(c1)OCO2` (centres unmarked), the melting point lay within 93 to 95 °C.

`NC1=N[C@H](O)[C@H]2[C@H]3O[C@]4(O)O[C@@H]([C@@H](O)[C@@]2(N1)[C@@H]4O)[C@]3(O)CO` [TTX, tetrodotoxin]: the “block of [14C] Guanidine influx by TTX” value is reported as “Guanidine influx was completely” in the data set on Nav1.4; “partially blocked by TTX (Nav1.5” with Nav1.4 and 1.5; “TTX partially blocked influx” on NaV1.8; “Guanidine influx was completely” at Nav1.2.

`O=C1N(Cc2ccc(Cl)s2)c2ccccc2C1(O)c1ccc2c(c1)OCO2` (centres unmarked) displayed a melting point of 164 to 165 °C.

The molecule `CCCCCN1C(=O)C(NC(=O)OC(C)(C)C)c2ccccc21` (centres unmarked) had a melting point of 145 to 147 °C.

`CCCCCN1C(=O)C(O)(c2ccc3c(c2)OCO3)c2c(Cl)cccc21` (centres unmarked) yielded a melting point of 140 to 142 °C.

Turning to `O=C1N(Cc2ccc(Cl)cc2)c2ccc(F)cc2C1(O)c1ccc2c(c1)OCO2` (centres unmarked), the melting point was in the range of 145 to 147 °C.

Turning to `O=C(CC1(O)C(=O)N(Cc2ccc3c(c2)OCO3)c2ccccc21)c1cccs1` (centres unmarked), the melting point is 186 to 187 °C.

Molecule `O=C1N(Cc2ccccc2I)c2ccccc2C1(O)c1ccc2c(c1)OCO2` (centres unmarked) returned a melting point of 130 to 132 °C.

In turn, `CCCCCN1C(=O)C(c2cc3c(cc2O)OCO3)c2ccccc21` (centres unmarked) displayed a melting point of 101 to 103 °C.

`O=C1N(Cc2ccc(C(F)(F)F)o2)c2ccc(F)cc2C1(CO)c1cc2c(cc1O)OCO2` (centres unmarked) yielded a melting point of 92 to 95 °C.

In turn, `CC(C)CCN1C(=O)C(O)(c2ccc3c(c2)OCO3)c2ccccc21` (centres unmarked) registered a melting point of 129 to 131 °C.

In the case of `O=C1N(Cc2ccc(Cl)cc2)c2ccccc2C1(O)c1cc(OCc2ccccc2)ccc1O` (centres unmarked), the melting point is 172 to 175 °C.

Consider `CCCCCN1C(=O)C(O)(c2ccc3c(c2)OCO3)c2cccc(-c3ccc(F)cc3)c21` (centres unmarked), for which the melting point was in the range of 149 to 151 °C.

As for `Cc1ccc2c(c1)C(O)(CC(=O)c1ccco1)C(=O)N2Cc1ccc(Cl)cc1` (centres unmarked), the melting point was in the range of 183 to 185 °C.

As for `O=C1N(Cc2ccccn2)c2cccc(Br)c2C1(O)c1cc2c(cc1O)OCC2` (centres unmarked), the melting point was more than 225 °C.

`O=C1N(Cc2cccs2)c2ccccc2C1(O)c1ccc2c(c1)OCO2` (centres unmarked) had a melting point of 141 to 142 °C.

Take `O=C1N(Cc2ccc(Cl)cc2)c2ccccc2C1(O)c1ccc2c(c1)OCCCO2` (centres unmarked): the melting point fell in the range of 188 to 190 °C.

As to `CCCCC(C)N1C(=O)C(O)(c2ccc3c(c2)OCO3)c2ccccc21` (centres unmarked), the melting point was 152 to 154 °C.

For `CCCCCN1C(=O)C(O)(c2ccc3c(c2)OCO3)c2cccc(C(F)(F)F)c21` (centres unmarked), the melting point was 115 to 117 °C.

With `O=C1N(Cc2ccc(Cl)c(C(F)(F)F)c2)c2ccccc2C1(O)c1ccc2c(c1)OCO2` (centres unmarked), the melting point lay within 133 to 135 °C.

In the case of `CCCCCN1C(=O)C(O)(c2cc3c(cc2CO)OCO3)c2ccccc21` (centres unmarked), the melting point lay within 120 to 122 °C.

On to `O=C1N(Cc2cccc(C(F)(F)F)c2)c2ccccc2C1(O)c1ccc2c(c1)OCO2` (centres unmarked), for which the melting point was in the range of 133 to 135 °C.

`O=C1N(Cc2ccc(Cl)cc2)c2ccc(Br)cc2C1(O)c1ccc2c(c1)OCO2` (centres unmarked) showed a melting point of 179 to 180 °C.

`O=C1C(c2ccc3c(c2)OCO3)c2ccccc2N1CCC1CC1` (centres unmarked) showed a melting point of 87 to 89 °C.

For `O=C1N(Cc2ccc(-n3cccc3)cc2)c2ccccc2C1(O)c1ccc2c(c1)OCO2` (centres unmarked), the melting point is 195 to 198 °C.

With `CCCCCCN1C(=O)C(O)(c2ccc3c(c2)OCO3)c2ccccc21` (centres unmarked), the melting point fell in the range of 88 to 90 °C.

`O=C(CC1(O)C(=O)N(Cc2ccc3c(c2)OCO3)c2ccccc21)c1ccco1` (centres unmarked) returned a melting point of 175 to 177 °C.

The molecule `O=C1N(Cc2ccc(Cl)cc2)c2ccc(OC(F)(F)F)cc2C1(O)c1ccc2c(c1)OCO2` (centres unmarked) returned a melting point of 138 to 140 °C.

As for `O=C1N(Cc2ccc(Cl)cc2)c2ccccc2C1(O)c1cncnc1` (centres unmarked), the melting point fell in the range of 155 to 157 °C.

`COc1ccc(C2(O)C(=O)N(Cc3ccc(Cl)cc3)c3ccccc32)cn1` (centres unmarked) returned a melting point of 182 to 184 °C.

As for `O=C(CC1(O)C(=O)N(CCc2ccc(Cl)cc2)c2ccccc21)c1ccco1` (centres unmarked), the melting point fell in the range of 128 to 132 °C.

In the case of `CCCCCN1C(=O)C(N)(CC(=O)c2cccs2)c2ccccc21` (centres unmarked), the melting point was in the range of 167 to 169 °C.

Turning to `O=C(CC1(O)C(=O)N(Cc2ccc(Cl)cc2)c2ccccc21)c1ccccn1` (centres unmarked), the melting point was 185 °C (dec.).

As for `CCCCCN1C(=O)C(O)(c2ccc3c(c2)OCO3)c2c(Cl)ccc(Cl)c21` (centres unmarked), the melting point was 82 to 84 °C.
